Experiment in all cases: growth of human tumour cells (NCI), 48 h
The test system of experiment [1] is DLD-1.
Experiment [2] concerns DMS-114.
The test system of experiment [3] is HOP-18.
Experiment [4] deals with KM-20L2.
The subject of experiment [5] is LXFL 529.
Experiment [6] concerns M19-MEL.
Experiment [7] deals with RXF 631.
The test system of experiment [8] is SNB-78.
Experiment [9] deals with XF498.

The structures appear in SMILES notation.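 Five compound concentrations were applied to cells in 96-well plates for 48 hours; endpoints were derived by simple linear interpolation of the resulting dose-response curve. GI50 is the concentration that inhibits growth by half.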 Active and inactive are the calls of the source. Rule as the data show it: active = GI50 up to about 1.1 µM and inactive = higher.

Consider `C/C(=N\NC(=S)N1CCC1)c1ccccn1`, for which the GI50 in experiment [1] is 10 nM (active); in experiment [2], 10 nM (active); in experiment [3], 929 nM (active); in [4], 10 nM (active); in [5] it was 10 nM (active); in experiment [6], 81.5 nM (active). The GI50 was < 26.2 nM (active) in experiment [7], 2200 nM (inactive) in experiment [8] and 457 nM (active) in [9].

Values taken from ChEMBL document CHEMBL1201862, “PubChem BioAssay data set” (2004).
